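The compound was tested at five concentrations on cells cultured in 96-well plates, with a 48-hour exposure period. At the TGI there is no net growth.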

Among the test systems are UACC-257 melanoma; SNB-19 CNS; MDA-MB-435; T-47D breast; OVCAR-8 ovarian; SF-295 CNS; OVCAR-5 ovarian; HS 578T breast; RPMI-8226 leukemia; HOP-62 NSCLC; MCF7 breast; OVCAR-3 ovarian; NCI-H460 lung; SR leukemia.
Common to all, as to experiment: NCI tumour cell line growth inhibition, 48 h

With `CCc1nn(S(=O)(=O)c2ccc(C)cc2)c2c1CS(=O)(=O)CC2`, the TGI in the assay with UACC-257 melanoma, in the assay on SNB-19 CNS, with MDA-MB-435, with T-47D breast, with OVCAR-8 ovarian and with SF-295 CNS was > 100 µM throughout. Further, the TGI with OVCAR-5 ovarian was > 100 µM; with HS 578T breast it was 87.7 µM; in the assay on RPMI-8226 leukemia, > 100 µM; with HOP-62 NSCLC it was > 100 µM; in the assay on MCF7 breast, > 100 µM; with OVCAR-3 ovarian, > 100 µM. The TGI in the assay on NCI-H460 lung is > 100 µM.

`O=C1O[C@H](C(Cl)(Cl)Cl)N2CCCC12` (stereo partly drawn): the TGI with UACC-257 melanoma, in the assay on SNB-19 CNS, in the assay on OVCAR-8 ovarian, in the assay on SF-295 CNS, in the assay with OVCAR-5 ovarian and in the assay on RPMI-8226 leukemia was > 100 µM in each case. Besides, the TGI with HOP-62 NSCLC, in the assay on OVCAR-3 ovarian and in the assay on NCI-H460 lung was > 100 µM each time.

For `Cc1cc(=O)n2nc(CSc3nnc(N)s3)sc2n1`, the TGI in the assay on UACC-257 melanoma, in the assay on SNB-19 CNS, in the assay on MDA-MB-435, with T-47D breast, in the assay on OVCAR-8 ovarian and with SF-295 CNS was > 100 µM in each case. Also, the TGI in the assay with OVCAR-5 ovarian, in the assay on HS 578T breast, with RPMI-8226 leukemia, in the assay with HOP-62 NSCLC, with MCF7 breast and with OVCAR-3 ovarian was > 100 µM throughout. Further, the TGI in the assay with NCI-H460 lung is > 100 µM.

As for `CCCn1c(=O)c2ccccc2[n+]2c(-c3ccc([N+](=O)[O-])cc3)csc12`, the TGI is > 100 µM in the assay on UACC-257 melanoma; > 100 µM with SNB-19 CNS; > 100 µM with MDA-MB-435; > 100 µM in the assay with T-47D breast; 83.4 µM in the assay on OVCAR-8 ovarian; > 100 µM in the assay with SF-295 CNS. Moreover, the TGI with OVCAR-5 ovarian is > 100 µM; with HS 578T breast it was > 100 µM; in the assay on RPMI-8226 leukemia it was 55.7 µM; with HOP-62 NSCLC it was 80.8 µM; with MCF7 breast, > 100 µM; with NCI-H460 lung it was > 100 µM.

For `COc1c(OC)c(O)c2c(=O)c(OC)c(-c3ccc4c(c3)OCO4)oc2c1O`, the TGI in the assay on UACC-257 melanoma, with SNB-19 CNS, in the assay on MDA-MB-435, with T-47D breast, in the assay with OVCAR-8 ovarian and in the assay on SF-295 CNS was > 100 µM each time. In addition, the TGI in the assay with OVCAR-5 ovarian, with HS 578T breast, with HOP-62 NSCLC, in the assay on MCF7 breast, in the assay on OVCAR-3 ovarian and with NCI-H460 lung was > 100 µM throughout.

With `CC(NC(=O)OCc1ccccc1)NC(=O)C(CC(=O)OC(C)(C)C)NC(=O)OC(C)(C)C` (stereo not drawn), the TGI with UACC-257 melanoma, with SNB-19 CNS, in the assay with MDA-MB-435, in the assay on T-47D breast, in the assay with OVCAR-8 ovarian and with SF-295 CNS was > 100 µM in each case. In addition, the TGI in the assay on OVCAR-5 ovarian, in the assay on HS 578T breast, in the assay on RPMI-8226 leukemia, in the assay on HOP-62 NSCLC, in the assay on MCF7 breast and in the assay with OVCAR-3 ovarian was > 100 µM each time. Besides, in the assay on NCI-H460 lung, the TGI is > 100 µM.

On to `COc1ccccc1NC(=S)N/N=C(/C)c1ccccn1`, for which the TGI in the assay with SNB-19 CNS, in the assay on MDA-MB-435, with OVCAR-8 ovarian, in the assay with SF-295 CNS, in the assay with OVCAR-5 ovarian and in the assay with HS 578T breast was > 100 µM in each case. The TGI is > 100 µM in the assay with RPMI-8226 leukemia, 36.7 µM in the assay with HOP-62 NSCLC, > 100 µM with MCF7 breast and 3.22 µM in the assay on NCI-H460 lung.

For the compound `CCOC(=O)c1c2c(n(-c3ccc(OC)cc3)c1C)C(=O)C(=O)c1ccccc1-2`, the TGI stood at 1.11 µM in the assay with UACC-257 melanoma; 19 µM in the assay with SNB-19 CNS; 0.351 µM in the assay on MDA-MB-435; 4.44 µM with T-47D breast; 2.76 µM in the assay on OVCAR-8 ovarian; 3.17 µM in the assay on SF-295 CNS. Further, the TGI with OVCAR-5 ovarian is 3.46 µM; in the assay on HS 578T breast, 6.32 µM; in the assay with RPMI-8226 leukemia it was 2.86 µM; in the assay with HOP-62 NSCLC, 3.46 µM; in the assay on MCF7 breast, 6.24 µM; in the assay on OVCAR-3 ovarian, 1.34 µM. This compound displayed a TGI in the assay with NCI-H460 lung of 5.36 µM.

In the case of `O=C(Nc1c(Cl)cc([N+](=O)[O-])cc1Cl)C(=O)C1C(=O)NC(=S)NC1=O`, the TGI in the assay with UACC-257 melanoma, in the assay with SNB-19 CNS, in the assay on MDA-MB-435, with T-47D breast, with OVCAR-8 ovarian and in the assay on SF-295 CNS was > 100 µM each time. The TGI in the assay on OVCAR-5 ovarian, in the assay with HS 578T breast, in the assay with RPMI-8226 leukemia, with HOP-62 NSCLC, in the assay on MCF7 breast and in the assay with OVCAR-3 ovarian was > 100 µM throughout. Further, the TGI in the assay on NCI-H460 lung is > 100 µM.

Take `OCC(O)C1OC2CC1Nc1ccccc1N2` (stereo not drawn): the TGI with UACC-257 melanoma, in the assay on SNB-19 CNS, in the assay with MDA-MB-435, with T-47D breast, in the assay on OVCAR-8 ovarian and with SF-295 CNS was > 100 µM in each case. For the same compound, the TGI with HS 578T breast, in the assay with RPMI-8226 leukemia, in the assay with HOP-62 NSCLC, in the assay with OVCAR-3 ovarian and with NCI-H460 lung was > 100 µM in each case.

Regarding `CCOC(=O)C(=O)C1C(=O)Nc2ccccc21` (stereo not drawn), the TGI in the assay with UACC-257 melanoma, with SNB-19 CNS, with OVCAR-8 ovarian, in the assay with SF-295 CNS, in the assay with OVCAR-5 ovarian and in the assay on RPMI-8226 leukemia was > 100 µM in each case. Moreover, the TGI with HOP-62 NSCLC, in the assay with OVCAR-3 ovarian and in the assay with NCI-H460 lung was > 100 µM each time.

Take `CCNC(=O)/C=C/CCC#Cc1ccc(-c2ccc(-c3cccs3)s2)s1`: the TGI with UACC-257 melanoma, in the assay on SNB-19 CNS, with OVCAR-8 ovarian, in the assay on SF-295 CNS, with OVCAR-5 ovarian and in the assay on SR leukemia was > 100 µM each time. The TGI in the assay on RPMI-8226 leukemia, in the assay on HOP-62 NSCLC, with OVCAR-3 ovarian and in the assay on NCI-H460 lung was > 100 µM throughout.

(Values after PubChem BioAssay (NCI).)
